Results published in US20100069384A1, “5-ALKYLOXY-INDOLIN-2-ONE DERIVATIVES, PREPARATION THEREOF AND APPLICATION THEREOF IN THERAPY” (SANOFI-AVENTIS, priority 2006, published 2010).

Assays:
V1b receptors = biological target: T1, V1b receptors (Homo sapiens, UniProt P47901); assay: affinity for V1b receptors (method of Sugimoto et al.); format: binding; conditions: for IC50 V1b/IC50 V2: selectivity ratio versus V2
T1 sequence (P47901 1-424): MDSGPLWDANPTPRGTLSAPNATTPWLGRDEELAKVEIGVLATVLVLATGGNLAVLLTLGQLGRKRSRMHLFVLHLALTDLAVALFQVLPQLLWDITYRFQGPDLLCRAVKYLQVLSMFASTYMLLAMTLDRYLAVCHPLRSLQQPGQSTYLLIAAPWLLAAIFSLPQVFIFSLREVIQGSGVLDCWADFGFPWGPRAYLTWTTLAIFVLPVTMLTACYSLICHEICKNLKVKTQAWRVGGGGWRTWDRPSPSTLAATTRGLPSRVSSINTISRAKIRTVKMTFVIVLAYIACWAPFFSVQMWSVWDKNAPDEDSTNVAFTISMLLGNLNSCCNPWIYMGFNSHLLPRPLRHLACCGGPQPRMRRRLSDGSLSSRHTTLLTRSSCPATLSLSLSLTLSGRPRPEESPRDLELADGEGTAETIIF
Procedure: (§1) The affinity of the compounds of the invention for the Via and V1b vasopressin receptors and the affinity of the compounds of the invention for the oxytocin (OXT) receptors were also tested.
(§2) The affinity of the compounds according to the invention for human Via receptors was determined according to the method described by M. Thibonnier et al. in J. Biol. Chem. 1994, 269, 3304-3310. The affinity of the compounds according to the invention for the V1b receptors was determined according to the method described by T. Sugimoto et al. in J. Biol. Chem. 1994, 269, 27088-27092.

human oxytocin receptors = biological target: T2, human oxytocin receptors (Homo sapiens, UniProt P30559); assay: in vitro binding test, displacement of a radioiodated oxytocin analogue from oxytocin receptors; conditions: for IC50: membrane preparation of human oxytocin receptors; for IC50 OXT/IC50 V2: selectivity ratio versus V2
T2 sequence (P30559 1-389): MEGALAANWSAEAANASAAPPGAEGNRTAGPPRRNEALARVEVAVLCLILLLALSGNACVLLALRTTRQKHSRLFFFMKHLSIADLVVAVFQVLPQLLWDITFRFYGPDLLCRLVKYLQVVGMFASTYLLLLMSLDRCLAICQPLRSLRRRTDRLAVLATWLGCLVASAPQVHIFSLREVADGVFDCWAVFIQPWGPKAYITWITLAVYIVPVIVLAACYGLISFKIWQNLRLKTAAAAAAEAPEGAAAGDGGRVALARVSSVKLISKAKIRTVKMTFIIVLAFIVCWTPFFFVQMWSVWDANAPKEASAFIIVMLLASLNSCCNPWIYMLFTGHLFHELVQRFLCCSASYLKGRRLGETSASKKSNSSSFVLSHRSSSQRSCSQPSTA
Procedure: as §1
The affinity of the compounds according to the invention for the OXT receptors was determined in an in vitro binding test using the method described by J. Elands et al. in Eur. J. Pharmacol. 1987, 147, 197-207. This method comprises in vitro investigation of the displacement of a radioiodated analogue of oxytocin from the oxytocin receptors in a membrane preparation of human oxytocin receptors.

V1a receptors = V1a receptors (Homo sapiens, UniProt P37288); assay: affinity for V1a receptors (method of Thibonnier et al.); format: binding; conditions: for IC50 V1a/IC50 V2: selectivity ratio versus V2
Chain of V1a receptors (P37288 whole entry): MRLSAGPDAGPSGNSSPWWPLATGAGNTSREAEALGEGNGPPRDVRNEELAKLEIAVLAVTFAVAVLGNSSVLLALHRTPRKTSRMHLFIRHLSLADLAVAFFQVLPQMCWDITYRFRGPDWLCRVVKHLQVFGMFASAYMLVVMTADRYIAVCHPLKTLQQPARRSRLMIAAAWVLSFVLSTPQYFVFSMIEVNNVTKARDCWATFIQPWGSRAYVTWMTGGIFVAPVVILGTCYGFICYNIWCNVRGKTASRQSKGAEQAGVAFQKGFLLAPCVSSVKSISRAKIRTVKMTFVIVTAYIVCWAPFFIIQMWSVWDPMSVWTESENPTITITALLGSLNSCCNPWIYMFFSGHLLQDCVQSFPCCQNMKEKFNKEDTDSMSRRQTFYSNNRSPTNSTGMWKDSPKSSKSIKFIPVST
Procedure: as §1, §2

[1] = biological target: T3, human recombinant V2 vasopressin receptors (Homo sapiens, UniProt P30518); assay: in vitro binding test, displacement of [H3]-AVP from V2 vasopressin receptors; conditions: CHO membranes, 3.5 nM [H3]-AVP, 45 minutes at 25° C.
T3 construct: expressed in transfected cells; host or cells: CHO
T3 sequence (P30518 whole entry): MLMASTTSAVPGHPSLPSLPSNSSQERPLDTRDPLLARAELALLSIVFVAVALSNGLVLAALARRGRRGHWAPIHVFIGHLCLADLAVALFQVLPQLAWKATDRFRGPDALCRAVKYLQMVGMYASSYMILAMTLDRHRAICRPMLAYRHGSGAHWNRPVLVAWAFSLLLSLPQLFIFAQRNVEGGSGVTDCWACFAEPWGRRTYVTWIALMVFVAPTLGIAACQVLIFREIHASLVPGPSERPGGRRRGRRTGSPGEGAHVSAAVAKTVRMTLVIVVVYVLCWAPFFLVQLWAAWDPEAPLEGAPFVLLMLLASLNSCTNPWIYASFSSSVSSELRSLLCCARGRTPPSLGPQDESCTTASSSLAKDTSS
Procedure: The affinity of the compounds of the invention for the V2 vasopressin receptors was measured in in vitro binding tests, as described in J. Pharmacol. Exp. Ther., (2002), 300: pp. 1122-1130.
Plasma membranes (about 20 μg/ml) obtained from CHO tissue or cell line expressing human recombinant V2 vasopressin receptors, are incubated for 45 minutes at 25° C. in 200 μL of TRIS-HCl buffer (50 mM; pH 8.2) containing 2 mM of MgCl2, 1 mM of EDTA, 0.1% of BSA, 1/500 protease inhibitor cocktail (Sigma #P2714) and 3.5 nM of [H3]-AVP. The reaction is stopped by filtration and washing on GF/B filters. Nonspecific binding is determined in the presence of 1 μM of AVP. The compounds of the invention, dissolved beforehand to a concentration of 10^−2 M in DMSO, are tested in a dilution series.
For each concentration the results are expressed as percentage inhibition of specific binding. An IC50 (concentration of product inhibiting 50% of specific binding) is determined for each of the products using the in-house software Biost@t-SPEED v1.3 which employs the 4-parameter logistic model of Ratkovsky and Reedy (1986). Adjustment is obtained by nonlinear regression using Marquardt's algorithm of the SAS v8.2 software running under UNIX.

Structure (SMILES)	IC50 (V1b receptors) [nM]	IC50 V1b/IC50 V2 (V1b receptors)	IC50 (human oxytocin receptors) [nM]	IC50 OXT/IC50 V2 (human oxytocin receptors)	IC50 (V1a receptors) [nM]	IC50 V1a/IC50 V2 (V1a receptors)	IC50 [1] [nM]	melting point [°C]
CCNC(=O)c1ccc(Cl)c(C2(C)C(=O)N(S(=O)(=O)c3ccc(C(=O)NC(C)(C)C)cc3OC)c3ccc(OCC)cc32)c1 (stereo not drawn) [Example 21, 4-chloro-3-[1-(4-tert-butylcarbamoyl-2-methoxybenzenesulphonyl)-5-ethoxy-3-methyl-2-oxo-2,3-dihydro-1H-indol-3-yl]-N-ethylbenzamide]	> 1000	>100	> 1000	>100	340	>100	3	176
CCOc1ccc2c(c1)C(C)(c1cc(NC(=O)C3CCN(C)CC3)ccc1Cl)C(=O)N2S(=O)(=O)c1ccc(C(=O)NC(C)(C)C)cc1OC (stereo not drawn) [Example 62, 1-methylpiperidine-4-carboxylic acid {3-[1-(4-tert-butylcarbamoyl-2-methoxy-benzenesulphonyl)-5-ethoxy-3-methyl-2-oxo-2,3-dihydro-1H-indol-3-yl]-4-chlorophenyl}-amide]	> 1000	>100	> 1000	>100	630	>100	2.5	180
CCOc1ccc2c(c1)C(C)(c1ccccc1)C(=O)N2S(=O)(=O)c1ccc(C(=O)NC(C)(C)C)cc1OC (single isomer, unassigned) [Example 99, N-tert-butyl-3-methoxy-4-[3-methyl-3-phenyl-5-ethoxy-2-oxo-2,3-dihydroindole-1-sulphonyl]benzamide]	> 1000	>100	700	>100	260	>100	1	148
